Test results as given in ChEMBL document CHEMBL5154856, “Targeting the tumor microenvironment by an enzyme-responsive prodrug of tubulin destabilizer for triple-negative breast cancer therapy with high safety” (Eur J Med Chem, 2022).
The source made the active and inactive calls. No cut-off for these calls is given here.

What was measured:
[1] = Toxicity in nude mouse assessed as effect on mean corpuscular hemoglobin level at 40 mg/kg, iv administered qd for 3 days (reference value: 22.3 pg); type: organism-based; settings: in vivo, 72 h, time 3 day
HeLa = assay: Antiproliferative activity against human HeLa cells assessed as inhibition of cell growth incubated for 48 hrs in absence of beta-glucuronidase by MTT assay; type: functional, cell-based
[2] = Toxicity in nude mouse assessed as effect on red blood cell count at 40 mg/kg, iv administered qd for 3 days (reference value: 0.21 10^12/L); type: organism-based; settings: in vivo, 72 h, time 3 day
[3] = Chemical stability of compound at pH 7.4 in PBS buffer at 1 mg incubated for 48 hrs by HPLC analysis; type: physicochemical; settings: pH 7.4, 48 h
[4] = Toxicity in nude mouse assessed as effect on alkaline phosphatase level in serum at 40 mg/kg, iv administered qd for 3 days (reference value: 66 U/L); type: organism-based; settings: in vivo, 72 h, time 3 day
[5] = Metabolic stability in rat liver microsomes assessed as half life at 10 mM measured up to 60 mins in presence of NADPH by LC-MS/MS analysis; type: ADME, Microsome
[6] = Toxicity in nude mouse assessed as ratio of effect on albumin level to effect on globulin level in serum at 40 mg/kg, iv administered qd for 3 days (reference value: 1.94); type: organism-based; settings: in vivo, 72 h, time 3 day
[7] = Toxicity in nude mouse xenografted with human MDA-MB-231 cells assessed as effect on body weight at 20 to 40 mg/kg, iv administered every 2 days for 14 days; type: organism-based; settings: in vivo, 336 h, dose 20-40 mg/kg, time 14 day
MDA-MB-231 [8] = assay: Antitumour activity against human MDA-MB-231 cells xenografted in nude mouse assessed as tumor growth inhibition at 40 mg/kg, iv administered every 2 days for 14 days; type: functional; settings: MDA-MB-231, 336 h, time 14 day, read-out: TGI
[9] = Toxicity in nude mouse assessed as effect on platelet distribution width at 40 mg/kg, iv administered qd for 3 days (reference value: 20.2); type: organism-based; settings: in vivo, 72 h, time 3 day
[10] = Metabolic stability in rat liver microsomes assessed as intrinsic clearance in microsomes at 10 mM measured up to 60 mins in presence of NADPH by LC-MS/MS analysis; type: ADME, Microsome; settings: read-out: CLH
MDA-MB-231 [11] = assay: Antiproliferative activity against human MDA-MB-231 cells assessed as inhibition of cell growth incubated for 48 hrs in absence of beta-glucuronidase by MTT assay; type: functional, cell-based; settings: MDA-MB-231, 48 h
[12] = Acute toxicity in BALB/c mouse assessed as animal survival at […], iv administered as single dose measured after 14 days; type: organism-based; settings: in vivo, time 14 day
[13] = Cardiotoxicity in nude mouse assessed as abnormal spikes at 20 to 40 mg/kg, iv administered once daily for 3 days by ECG analysis; type: toxicity, organism-based; settings: in vivo, 72 h, dose 20-40 mg/kg, time 3 day
[14] = Toxicity in nude mouse assessed as effect on total bilirubin level in serum at 40 mg/kg, iv administered qd for 3 days (reference value: 3.3 micromol/L); type: organism-based; settings: in vivo, 72 h, time 3 day
[15] = Toxicity in nude mouse assessed as effect on gamma-glutamyl transpeptidase level in serum at 40 mg/kg, iv administered qd for 3 days (Rvb < 2 U/L); type: organism-based; settings: in vivo, 72 h, time 3 day
[16] = Aqueous solubility of compound in PBS at pH 7.4 at 1 mg incubated for 10 mins by HPLC analysis; type: physicochemical
MDA-MB-231 [17] = assay: Antitumour activity against human MDA-MB-231 cells xenografted in nude mouse assessed as reduction in tumor volume at 40 mg/kg, iv administered every 2 days for 14 days; type: functional, organism-based; settings: time 14.0 day
[18] = Acute toxicity in BALB/c mouse assessed as lethal dose administered intravenously as single dose and measured after 14 days; settings: in vivo, route iv, time 14 day
MDA-MB-231 [19] = assay: Antitumour activity against human MDA-MB-231 cells xenografted in nude mouse assessed as tumor growth inhibition at 20 mg/kg,iv administered every 2 days for 14 days; type: functional; settings: MDA-MB-231, 336 h, time 14 day, read-out: TGI
[20] = Metabolic stability in rat liver microsomes assessed as intrinsic clearance in liver at 10 mM measured up to 60 mins in presence of NADPH by LC-MS/MS analysis; type: ADME, Microsome; settings: read-out: CLH
MDA-MB-231 [21] = assay: Antitumor activity against mouse xenografted with human MDA-MB-231 cells assessed as increase in tumor necrosis area at 20 to 40 mg/kg, iv administered every 2 days for 14 days by H and E staining based assay; type: functional, organism-based; settings: dose 20-40 mg/kg, time 14.0 day
[22] = Toxicity in nude mouse assessed as effect on eosinophil level at 40 mg/kg, iv administered qd for 3 days (reference value: 6 %); type: organism-based; settings: in vivo, 72 h, time 3 day
[23] = Cardiotoxicity in nude mouse assessed as prolonged QT intervals at 20 to 40 mg/kg, iv administered once daily for 3 days by ECG analysis; type: toxicity, organism-based; settings: in vivo, 72 h, dose 20-40 mg/kg, time 3 day
[24] = Toxicity in nude mouse assessed as effect on alanine aminotransferase level in serum at 40 mg/kg, iv administered qd for 3 days (reference value: 308 U/L); type: organism-based; settings: in vivo, 72 h, time 3 day
[25] = Toxicity in nude mouse assessed as effect on lymphocyte level at 40 mg/kg, iv administered qd for 3 days (reference value: 60.90 %); type: organism-based; settings: in vivo, 72 h, time 3 day
[26] = Toxicity in nude mouse assessed as effect on platelet count at 40 mg/kg, iv administered qd for 3 days (reference value: 21 10^9/L); type: organism-based; settings: in vivo, 72 h, time 3 day
[27] = Metabolic stability in rat liver microsomes assessed as parent compound remaining at 10 mM measured up to 60 mins in presence of NADPH by LC-MS/MS analysis; type: ADME, Microsome; settings: read-out: Stability
[28] = Toxicity in nude mouse assessed as effect on aspartate aminotransferase level in serum at 40 mg/kg, iv administered qd for 3 days (reference value: 424 U/L); type: organism-based; settings: in vivo, 72 h, time 3 day
SK-OV-3 = assay: Antiproliferative activity against human SK-OV-3 cells assessed as inhibition of cell growth incubated for 48 hrs in presence of beta-glucuronidase by MTT assay; type: functional, cell-based; settings: SK-OV-3, 48 h
MCF7 = assay: Antiproliferative activity against human MCF7 cells assessed as inhibition of cell growth incubated for 48 hrs in absence of beta-glucuronidase by MTT assay; type: functional, cell-based; settings: MCF7, 48 h
[29] = Toxicity in nude mouse xenografted with human MDA-MB-231 cells assessed as pathological changes in liver at 20 to 40 mg/kg, iv administered every 2 days for 14 days by H and E staining based assay; type: organism-based; settings: in vivo, 336 h, dose 20-40 mg/kg, time 14 day
[30] = Toxicity in nude mouse assessed as effect on basophil level at 40 mg/kg, iv administered qd for 3 days (reference value: 11.70 %); type: organism-based; settings: in vivo, 72 h, time 3 day
[31] = Toxicity in nude mouse assessed as effect on mean corpuscular hemoglobin concentration at 40 mg/kg, iv administered qd for 3 days (reference value: 473 g/L); type: organism-based; settings: in vivo, 72 h, time 3 day
[32] = Toxicity in nude mouse assessed as effect on white blood cell count at 40 mg/kg, iv administered qd for 3 days (reference value: 0.02 10^9/L); type: organism-based; settings: in vivo, 72 h, time 3 day
[33] = Stability of compound in phosphate buffer at pH 7.4 assessed as Escherichia coli beta-glucuronidase mediated compound cleavage at 1.2 mg measured after 30 mins by HPLC analysis; type: ADME; settings: pH 7.4, 0.5 h

**Q.** Which results are given for `COc1ccc([C@H]2[C@H](CO)C(=O)N2c2cc(OC)c(OC)c(OC)c2)cc1OCc1ccc(O[C@@H]2O[C@H](C(=O)O)[C@@H](O)[C@H](O)[C@H]2O)cc1`?
**A.** Activity [1]: 22.3 pg; IC50 (HeLa): > 50 µM; Activity [2]: 0.31 10^12/L; Stability [3]: Stable; Activity [4]: 56 U/L; half-life [5]: > 2.42 h; Ratio [6]: 1.84; Activity [7]: Non-Toxic; inhibition in vivo at 40 mg/kg (MDA-MB-231 [8]): 63%; Activity [9]: 17; microsomal CLint [10]: < 9.6 µL/min/mg; IC50 (MDA-MB-231 [11]): > 50 µM; survival at 336 h [12]: 75%; Activity [13]: Non-Toxic; Activity [14]: 3.9 µmol/L; Activity [15]: < 2 U/L; solubility at 10 min [16]: > 40 mg/mL; Activity (MDA-MB-231 [17]): Active; LD50 at 336 h [18]: > 500 mg/kg; inhibition in vivo at 20 mg/kg (MDA-MB-231 [19]): 50%; CLint scaled [20]: < 38 mL/min/kg; Activity (MDA-MB-231 [21]): Active; Activity [22]: 6.2%; Activity [23]: Non-Toxic; Activity [24]: 316 U/L; Activity [25]: 57.2%; Activity [26]: 43 10^9/L; remaining at 1 h [27]: 74.9%; Activity [28]: 503 U/L; IC50 (SK-OV-3): 0.0141 µM; IC50 (MCF7): > 50 µM; Activity [29]: Non-Toxic; Activity [30]: 6.8%; Activity [31]: 512 g/L; Activity [32]: 0.12 10^9/L; Stability [33]: Unstable
